Laboratory results: patent US20090317376A1, “Compositions And Methods For Lipo Modeling” (Georgetown University MEDICAL SCHOOL, priority 2005, published 2009)
Entries after “also recorded” stand apart in the source; their conditions may differ.

Tested on: human fat pads
Assay: Human fat xenograft in nude athymic mice
Assay type: in vivo
Protocol: In addition to augmenting mouse fat with NPY, human fat from elective liposuction surgery is harvested by using a closed syringe system (Cell Friendly, Tulip Medical) to minimize cell trauma during harvest and aliquots of 100 μl are injected subcutaneously into a nude athymic mouse. Slow release pellets of NPY or placebo are subcutaneously implanted within 1 cm of the fat pad, replaced 2 weeks later, and then harvested after 4 weeks of formation of fat pads. Ultrasound is used to monitor vascularization of fat pads at various time points. The time-course of expression of the NPY system and its downstream mediators is determined in relation to innervation, vascularization and fat growth (by MRI, ultrasound, IHC). Dependence of adipogenesis on angiogenesis is assessed by comparing non-specific, antiangiogenic therapy with the blockade of the NPY-Y2 angiogenic pathway. […] This observation is confirmed by ultrasound (FIG. 7, bottom).
Human fat implantation: The processed fat for injection is loaded into syringes. The nude mice are anesthetized and slow release pellets inserted as described above. A small nick is made with a pair of sterile scissors in the close proximity of the pellets and 100 μl of fat is implanted using an 18 gauge Coleman infiltration cannula (Byron Medical) attached to the syringe. If necessary, the skin wound is closed with medical cyanoacrylate and the mouse is allowed to recover. The fat pad growth is monitored and the sample harvested as described above.
Ultrasonography: The mice are anesthetized by inhalation of isoflurane 1-3% in oxygen, hair removed with depilatory cream and a sterile water based ultrasonic gel is applied to the area (Aquasonic gel—Visual Sonics). The mouse is placed in the Visual Sonics mouse holder containing a thermostatically controlled heating pad to maintain mouse body temperature. The imaging is performed with a small animal ultrasound system, Visual Sonics Vivo 660 (55 MHz).
1. Cell culture: 3T3-L1 preadipocyte cells, (gift from Dr. Lane,^34) were cultured in DMEM high glucose media with glutamine, 10% calf sera (Gemini Bioproducts), d-Biotin (8 μg/ml) and Pantothenate (8 μg/ml) (Sigma). SK-N-BE(2) neuroblastoma cells (ATCC) were cultured in EMEM/F12K with 10% fetal bovine sera (FBS). HMVEC endothelial cells (Cambrex) were cultured in endothelial cell growth media (Cambrex). All media was supplemented with 100 units/ml penicillin, 100 μg/ml streptomycin and […] amphotericin. 2. […] After 24 h, cells were harvested in a 96-well harvester (Tomtec) and counted in a Betaplate Liquid Scintillation Counter (Wallac). […] After 48 hr, the cells were counted with a Beckman Coulter Counter. […]

[1] = NPY pellet vs placebo pellet, FIG. 7

For neuropeptide Y [NPY], the “xenograft vascularization (density of CD31+ vessels)” value (NPY pellet 1 μg/14 days alongside the xenograft) was “increased”, the “xenograft 3-month survival” value (NPY pellet 1 μg/14 days, placebo-treated grafts underwent resorption) was “increased” and the “areas of more dense necrotic tissue (ultrasound)” value [1] was “more in NPY-treated than placebo-treated”. The “vacuolization / holes in fat pads (ultrasound, IHC)” value [1] was “more holes in the placebo-pellet treated fat pads; also recorded: more numerous in placebo-treated than NPY-treated fat pads”.
